Reference: ChEMBL document CHEMBL1201862, “PubChem BioAssay data set” (2004)
Where “and” joins values, the source holds several entries; their conditions need not be identical. Identical values can stand only once.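 Dose response: 5 concentrations. Exposure: 48 h. Format: 96-well plates. Endpoint: linear interpolation; highest concentration if not reached. GI50: concentration for 50% inhibition of growth.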 Calls of active or inactive are those of the source. No stated cut-off is given here; in the data, active = GI50 up to about 1.1 µM and inactive = higher.

How the values were obtained:
Experiment in all cases: growth of human tumour cells (NCI), 48 h
786-0 = tested on: 786-0
A549 = tested on: A549
CAKI-1 = tested on: CAKI-1
COLO 205 = tested on: COLO 205
HCT-116 = tested on: HCT-116
HCT-15 = tested on: HCT-15
HT-29 = tested on: HT-29
LOX IMVI = tested on: LOX IMVI
MDA-MB-231 = tested on: MDA-MB-231
MDA-MB-435 = tested on: MDA-MB-435
MOLT-4 = tested on: MOLT-4
Malme-3M = tested on: Malme-3M
NCI-H460 = tested on: NCI-H460
RPMI-8226 = tested on: RPMI-8226
RXF 393 = tested on: RXF 393
SNB-19 = tested on: SNB-19
SR = tested on: SR
SW-620 = tested on: SW-620
UACC-257 = tested on: UACC-257
SK-MEL-2 = tested on: SK-MEL-2

| SMILES | GI50 (786-0) | GI50 (A549) | GI50 (CAKI-1) | GI50 (COLO 205) | GI50 (HCT-116) | GI50 (HCT-15) | GI50 (HT-29) | GI50 (LOX IMVI) | GI50 (MDA-MB-231) | GI50 (MDA-MB-435) | GI50 (MOLT-4) | GI50 (Malme-3M) | GI50 (NCI-H460) | GI50 (RPMI-8226) | GI50 (RXF 393) | GI50 (SNB-19) | GI50 (SR) | GI50 (SW-620) | GI50 (UACC-257) | GI50 (SK-MEL-2) |
| --- | --- | --- | --- | --- | --- | --- | --- | --- | --- | --- | --- | --- | --- | --- | --- | --- | --- | --- | --- | --- |
| COc1ccc(N[S+]([O-])CCc2ccccc2)cc1 (stereo unspecified) | > 100 µM (inactive) | > 100 µM (inactive) | > 100 µM (inactive) | > 100 µM (inactive) | > 100 µM (inactive) | > 100 µM | > 100 µM (inactive) | > 100 µM (inactive) | > 100 µM (inactive) | > 100 µM (inactive) | > 100 µM (inactive) | > 100 µM (inactive) | > 100 µM (inactive) | > 100 µM (inactive) | > 100 µM (inactive) | > 100 µM (inactive) | > 100 µM (inactive) | > 100 µM (inactive) | > 100 µM (inactive) |  |
| O=C(Cc1nccc2c1[nH]c1ccccc12)OC1C#CCSCC#C/C=C\1 (stereo unspecified) | > 100 µM (inactive) | > 100 µM (inactive) | > 100 µM (inactive) | 52.1 µM (inactive) | 50 µM (inactive) | > 100 µM | > 100 µM (inactive) | 57.9 µM (inactive) | > 100 µM (inactive) | 75.7 µM (inactive) | 39.5 µM (inactive) | > 100 µM (inactive) | > 100 µM (inactive) | > 100 µM (inactive) | > 100 µM (inactive) | > 100 µM (inactive) | > 100 µM (inactive) | > 100 µM (inactive) | > 100 µM (inactive) |  |
| COc1cccc(NCC(=O)Nn2c(-c3ccccc3)nc3ccccc3c2=O)c1 | > 100 µM (inactive) | > 100 µM (inactive) |  | > 100 µM (inactive) | > 100 µM (inactive) | > 100 µM | > 100 µM (inactive) | > 100 µM (inactive) | > 100 µM (inactive) | > 100 µM (inactive) | > 100 µM (inactive) | > 100 µM (inactive) | > 100 µM (inactive) | > 100 µM (inactive) | > 100 µM (inactive) | > 100 µM (inactive) | > 100 µM (inactive) | > 100 µM (inactive) | > 100 µM (inactive) |  |
| COc1ccc(-c2cc(-c3cc(F)c(Cl)cc3Cl)[nH]n2)cc1OC | 19.6 µM (inactive) | 40.7 µM (inactive) | 50.8 µM (inactive) | 19.2 µM (inactive) | 25.7 µM (inactive) | 21.2 µM | 22.1 µM (inactive) | 18.4 µM (inactive) | 30.4 µM (inactive) | 46.2 µM (inactive) | 14.5 µM (inactive) | 30.4 µM (inactive) | 32.1 µM (inactive) | 17.3 µM (inactive) | 15.1 µM (inactive) | 49.4 µM (inactive) | 11.1 µM (inactive) | 29.6 µM (inactive) | 32.7 µM (inactive) | 79.6 µM (inactive) |
| c1ccc(CCc2cccnc2)nc1 | > 100 µM (inactive) | > 100 µM (inactive) | > 100 µM (inactive) | > 100 µM (inactive) | > 100 µM (inactive) | > 100 µM | > 100 µM (inactive) | > 100 µM (inactive) | > 100 µM (inactive) | > 100 µM (inactive) | > 100 µM (inactive) | > 100 µM (inactive) | > 100 µM (inactive) | > 100 µM (inactive) | > 100 µM (inactive) | > 100 µM (inactive) | > 100 µM (inactive) | > 100 µM (inactive) | > 100 µM (inactive) | > 100 µM (inactive) |
| O=C1C(Cl)C2(CC(/C=C/c3ccccc3)=NN2c2cccc(S(=O)(=O)O)c2)N1c1nc2ccccc2s1 (stereo unspecified) | 17.3 µM (inactive) | 15.3 µM (inactive) | 9.46 µM (inactive) | 19.2 µM (inactive) | 21.1 µM (inactive) | 15.9 µM | 19.4 µM (inactive) | 2.79 µM (inactive) | 12.2 µM (inactive) | 21.4 µM (inactive) | 20.7 µM (inactive) | 17.3 µM (inactive) | 22.8 µM (inactive) | 13.8 µM (inactive) | 7.83 µM (inactive) | 25.2 µM (inactive) | 13.4 µM (inactive) | 28.8 µM (inactive) | 17.8 µM (inactive) | 17.3 µM (inactive) |
| [O-][S+](CCc1ccccc1)Nc1ccccc1 (stereo unspecified) | > 100 µM (inactive) | > 100 µM (inactive) | > 100 µM (inactive) | > 100 µM (inactive) | > 100 µM (inactive) | > 100 µM | > 100 µM (inactive) | > 100 µM (inactive) | > 100 µM (inactive) | > 100 µM (inactive) | > 100 µM (inactive) | > 100 µM (inactive) | > 100 µM (inactive) | > 100 µM (inactive) | 55.5 µM (inactive) | > 100 µM (inactive) | > 100 µM (inactive) | > 100 µM (inactive) | 99.3 µM (inactive) |  |
| CCN1CCC(O)(/C=C/c2ccc(OC)cc2)C(C(=O)/C=C/c2ccc(OC)cc2)C1 (stereo unspecified) | 4.03 µM (inactive) | 16.6 µM (inactive) |  | 4.2 µM (inactive) | 3.81 µM (inactive) | > 10 µM | 7.16 µM (inactive) | 2.37 µM (inactive) | 5.02 µM (inactive) | 6.05 µM (inactive) | 2.72 µM (inactive) | 17.1 µM (inactive) | 11.1 µM (inactive) | 2.26 µM (inactive) | 2.37 µM (inactive) | 15.1 µM (inactive) | 3.46 µM (inactive) | 4.53 µM (inactive) | 11.1 µM (inactive) |  |
| CN(C)CC1=Nc2cccc3cccc(c23)N1 | 12.4 µM (inactive) | 67.8 µM (inactive) | 21.5 µM (inactive) | 2.95 µM (inactive) | 8.15 µM (inactive) | 23.8 µM | 22.8 µM (inactive) | 19.4 µM (inactive) | 17.8 µM (inactive) | 20.2 µM (inactive) |  | 22 µM (inactive) | 34.3 µM (inactive) | 3.3 µM (inactive) | 17.9 µM (inactive) | > 100 µM (inactive) | 17.9 µM (inactive) | 4.08 µM (inactive) | 16.9 µM (inactive) | 17.4 µM (inactive) |
| COc1cccc(N(CN2C(=O)CCC2OC)C(C)=O)c1 (stereo unspecified) | > 100 µM (inactive) | > 100 µM (inactive) | > 100 µM (inactive) | > 100 µM (inactive) | > 100 µM (inactive) | > 100 µM | > 100 µM (inactive) | > 100 µM (inactive) | > 100 µM (inactive) | > 100 µM (inactive) | > 100 µM (inactive) |  | > 100 µM (inactive) | > 100 µM (inactive) | > 100 µM (inactive) | > 100 µM (inactive) | > 100 µM (inactive) | > 100 µM (inactive) | > 100 µM (inactive) | > 100 µM (inactive) |
| CC1OC(OC2C(OC(=O)[C@]34CCC(C)(C)C[C@H]3C3=CC[C@@H]5[C@@]6(C)CC[C@H](OC7OC(CO)C(O)C(O)C7OC7OC(CO)C(O)C(O)C7O)C(C)(C)[C@@H]6CC[C@@]5(C)[C@]3(C)CC4)OCC(O)C2O)C(O)C(O)C1OC1OCC(O)C(OC2OCC(O)C(O)C2O)C1O (stereo partly specified) | 6.67 µM (inactive) and 5.46 µM (inactive) | 3.01 µM (inactive) and 3.03 µM (inactive) | 3.6 µM (inactive) and 4 µM (inactive) | 1.78 µM (inactive) and 2.43 µM (inactive) | 5.04 µM (inactive) and 3.85 µM (inactive) | 12.9 µM and 13 µM | 3.02 µM (inactive) and 3.33 µM (inactive) | 9.98 µM (inactive) and 11.1 µM (inactive) | 3.14 µM (inactive) and 2.84 µM (inactive) | 1.67 µM (inactive) and 1.94 µM (inactive) |  | 2.49 µM (inactive) and 2.52 µM (inactive) | 15.7 µM (inactive) and 17.7 µM (inactive) | 3.98 µM (inactive) and 4.43 µM (inactive) | 9.86 µM (inactive) and 6.75 µM (inactive) | 7.89 µM (inactive) and 7.41 µM (inactive) | 2.19 µM (inactive) and 3.06 µM (inactive) | 10.4 µM (inactive) and 11 µM (inactive) | 2.22 µM (inactive) and 2.33 µM (inactive) | 3.01 µM (inactive) and 2.9 µM (inactive) |
| O=C1/C(=C\c2cccs2)Oc2ccccc21 | 77.6 µM (inactive) | 56.9 µM (inactive) | 33.6 µM (inactive) | 75.3 µM (inactive) | 60.4 µM (inactive) | 36.6 µM | 63.7 µM (inactive) | 51.3 µM (inactive) | 71.1 µM (inactive) | 98.6 µM (inactive) | 33.9 µM (inactive) |  | 53.1 µM (inactive) | 69.5 µM (inactive) | 65.8 µM (inactive) | 75.3 µM (inactive) | > 100 µM (inactive) | > 100 µM (inactive) | 63.1 µM (inactive) | > 100 µM (inactive) |
| CSc1ncnc2c1ncn2CCC(=O)OC(C)(C)C | > 100 µM (inactive) | > 100 µM (inactive) | > 100 µM (inactive) | > 100 µM (inactive) | > 100 µM (inactive) |  | > 100 µM (inactive) | > 100 µM (inactive) | > 100 µM (inactive) | > 100 µM (inactive) | > 100 µM (inactive) | > 100 µM (inactive) | > 100 µM (inactive) | > 100 µM (inactive) | > 100 µM (inactive) | > 100 µM (inactive) | > 100 µM (inactive) | > 100 µM (inactive) | > 100 µM (inactive) |  |
| COc1ccccc1[C@@H]1CCC2CC[C@@H](c3ccccc3OC)[N+]21Cc1ccccc1 (stereo partly specified) | 1.94 µM (inactive) | 1.99 µM (inactive) | 3.87 µM (inactive) | 0.44 µM (active) | 1.6 µM (inactive) | 3.76 µM | 0.847 µM (active) | 1.69 µM (inactive) | 1.95 µM (inactive) | 0.585 µM (active) | 1.83 µM (inactive) | 2.3 µM (inactive) |  | 0.211 µM (active) | 2 µM (inactive) | 0.982 µM (active) | 1.03 µM (active) | 2.6 µM (inactive) | 0.521 µM (active) | 1.51 µM (inactive) |
